This is an account of results in US20080213404A1, “Hif Modulating Compounds and Methods of Use Thereof” (priority 2005, published 2008).

Counter-ions that a name gives are not always drawn. Like-named read-outs stand apart in the source and are kept apart here.

Test [1] deals with TNF-α. Put plainly: TNF-α ELISA of conditioned macrophage supernatants after GAS. Format: cell-based, mouse. Particulars: WT, HIF-1α and vHL-deficient macrophages, 1 hour after antibiotic treatment. As for the experimental part: FIG. 7 is a series of graphs illustrating HIF-1 and vHL regulate TNF-production. (A) Total RNA from WT, HIF-1−/−, and vHL−/− bone marrow-derived macrophages infected with GAS were isolated 3 hours after antibiotic treatment. TNF-mRNA was quantified by RT-PCR. WT, nonstimulated macrophages were arbitrarily set to 1 unit following normalization to ribosomal RNA levels. (B) inhibition of iNOS decreases TNF-production. BM-derived macrophages were cultured for 1 hour after antibiotic treatment. Conditioned supernatant was harvested and TNF-protein analyzed by ELISA (eBiosciences). Statistical analyses were performed using unpaired Student's t test. ***P<0.001.
We next examined the expression pattern of TNF-α, a cytokine involved in the augmentation of inflammatory responses to microbial infection. Indeed, development of GAS-necrotizing fasciitis has been reported as a complication of anti-TNF-α therapy (37). […] Whereas basal levels of TNF-α protein expression were similar in WT, HIF-1α, and vHL-null macrophages, loss of HIF-1α also strongly depressed the rapid secretion of TNF-α protein in response to GAS (FIG. 7B).
(In general: In an ELISA, binding on a coated surface is turned into a signal by an enzyme label.)

Test [2] concerns intracellular killing of GAS by macrophages. Put plainly: Bacterial killing assay (antibiotic protection): intracellular killing of GAS by macrophages. Format: cell-based, mouse. The settings on record: for intracellular killing of GAS by WT macrophages: preincubation 5 hours, L-Mim 800 μM, OH-pyridone 150 μM, desferrioxamine mesylate 100 μM, CoCl2 100 μM. As for the experimental part: FIG. 2 is a series of graphs showing HIF-1 regulates bactericidal activity of myeloid cells. (A) Intracellular killing of GAS by WT, HIF-1-null, or vHL-null macrophages. BM-derived macrophages were inoculated with GAS at an MOI equal to 2.5 and cultured under normoxic (white bars) or hypoxic (0.1%; black bars) conditions for 1 hour after antibiotic treatment. Statistical analyses were performed using unpaired Student's t test. *P<0.05; **P<0.01. (B) Loss of HIF-1 in macrophages decreases intracellular killing of GAS and of P. aeruginosa. WT (black bars) or HIF-1-null (white bars) BM-derived macrophages were incubated with bacteria for 1 hour before antibiotics were added. Intracellular killing was analyzed by determination of viable CFUs in macrophage lysates at the specified time points after bacterial uptake. Experiments were performed in triplicate. […] Experiment shown is representative of 3 repeated studies. (C) Loss of vHL in BM-derived macrophages increases intracellular killing of GAS and of P. aeruginosa. Experiments were performed in triplicate and are representative of 3 repeated studies. […] (D) Pharmacologic agonists of HIF-1 increase myeloid cell bactericidal activity. Preincubation (5 hours) with desferrioxamine mesylate (DFO), CoCl2, OH-pyridone, or Mim increased the intracellular killing capacity of WT macrophages against GAS. ***P<0.001.
To assess the functional consequences of HIF-1α activation, we used an antibiotic protection assay to calculate intracellular killing of GAS by WT macrophages compared with killing by those derived from the bone marrow of HIF-1α-lysMcre mice (11). Here, targeted deletion of the HIF-1α gene has been created via crosses into a background of cre expression driven by the lysozyme M promoter (lysMcre), allowing specific deletion of the transcription factor in the myeloid lineage (11). […] Macrophage killing of the Gram-negative bacterium P. aeruginosa was likewise impaired upon deletion of HIF-1α (FIG. 2B).
Finally, we treated WT macrophages with a number of known pharmacologic inducers of HIF-1α that each act directly or indirectly to inhibit prolyl hydroxylase targeting of HIF-1α for ubiquitination. These included the iron chelator desferrioxamine, CoCl2, L-Mim, and 3-hydroxy-1,2-dimethyl-4(1H)-pyridone (OH-pyridone) (13). The addition of each of these agents increased intracellular killing of GAS by WT macrophages (FIG. 2D).
Bacterial killing assays. GAS were grown to logarithmic phase in THB to OD600=1×10^8 cfu/ml. Bacteria were added to macrophages at an MOI of 2.5 bacteria/cell and intracellular killing assessed using an antibiotic protection assay (11, 53) or, alternatively, total cell-associated bacteria measured by vigorous washing with PBS×3 to remove nonadherent bacteria. At the end of the assay, total cell lysate was plated on THB agar for enumeration of CFU. […] To assess macrophage viability, the monolayers were washed with PBS and incubated with 0.04% Trypan blue for 10 minutes at 37° C. As specified in the FIG. 2 legend and in Results, macrophages were preincubated with L-Mim (800 μM), OH-pyridone (150 μM), desferrioxamine mesylate (100 μM), or CoCl2 (100 μM) for 5 hours prior to the killing assay; each drug level was known to be sufficient for HIF-1 induction (13). Absence of bacterial inhibition was tested by incubating the drugs at the above concentrations with GAS (˜105) at 37° C. for 1-24 hours. Mouse model of GAS infection.

In test [3] the test system is NO production. Put plainly: Nitrite determination (Griess assay) in macrophage supernatants under GAS stimulation. Format: cell-based, mouse. The settings on record: 1.5 mM AG; macrophages cultured 20 hours. The procedure: (§1) FIG. 6 provides graphs showing HIF-1 and vHL regulate NO production. (A) Total RNA from WT, HIF-1−/−, and vHL−/− bone marrow-derived macrophages infected with GAS isolated 3 hours after antibiotic treatment. iNOS mRNA was quantified by RT-PCR. WT, nonstimulated macrophages were arbitrarily set to 1 unit following normalization to ribosomal RNA levels. (B) NO production under GAS stimulation ±1.5 mM AG ([…]; Calbiochem). BM-derived macrophages were cultured for 20 hours, conditioned supernatant collected, and NO […] levels measured by the Griess assay. (C) Mim enhances iNOS expression of WT macrophages stimulated by GAS. Total RNA from WT and HIF-1-null BM-derived macrophages infected with GAS±Mim isolated 3 hours after antibiotic treatment. iNOS mRNA was quantified by RT-PCR. WT, noninfected macrophages were arbitrarily set to 1 unit following normalization to ribosomal RNA levels. Statistical analyses performed by unpaired Student's t test. **P<0.01; ***P<0.001. […]
The concentration of nitrite (NO2-), the stable oxidized derivative of NO, was determined in 100-μl aliquots of cell culture supernatants transferred to 96-well plates. Essentially, 100 μl of Griess reagent (1% sulfanilamide, 0.1% naphthylene diamine dihydrochloride, 2% H3PO4) was added per well, and the absorbances were measured at 540 nm in a microplate reader. […]
(In general: Griess reagent forms a coloured azo dye with nitrite.)

Test [4] relates to HIF-1α. The test can be described thus: Western blot of HIF-1α in macrophages exposed to GAS. Particulars: WT macrophages, normalized to β-actin. Format: cell-based, mouse. As for the experimental part:
as §1
Peritoneal neutrophils or bone marrow-derived macrophages inoculated with GAS were harvested and washed with PBS, and proteins were extracted with HTAB or RIPA buffers. Protein concentration was calculated using the Bio-Rad assay (Bio-Rad Laboratories). […] Immunoreactive proteins were detected using the ECL chemiluminescent system (Amersham Biosciences).
(In general: Immunoblotting shows a protein as a band on a membrane.)

In test [5] the test system is vincomycin-resistant Enterococcus species. The settings on record: cultured human monocytic cells.
For test [6] the test system is unchanged. Particulars: freshly isolated human neutrophils.
The test system of test [7] is Staphylococcus aureus. The test can be described thus: Bactericidal capacity of freshly isolated human neutrophils against S. aureus. Format: cell-based.
Test [8] has as its system Staphylococcus aureus. Put plainly: Bactericidal capacity of freshly isolated human blood. Format: cell-based.
The test system of test [9] is iNOS. The test can be described thus: iNOS mRNA by RT-PCR in BM-derived macrophages infected with GAS. Format: cell-based, mouse. The settings on record: for expression of iNOS mRNA: WT macrophages infected with GAS, RNA isolated 3 hours after antibiotic treatment.
Experimental: (A) Total RNA from WT, HIF-1−/−, and vHL−/− bone marrow-derived macrophages infected with GAS isolated 3 hours after antibiotic treatment. iNOS mRNA was quantified by RT-PCR. WT, nonstimulated macrophages were arbitrarily set to 1 unit following normalization to ribosomal RNA levels. […] Total RNA from WT and HIF-1-null BM-derived macrophages infected with GAS±Mim isolated 3 hours after antibiotic treatment. iNOS mRNA was quantified by RT-PCR. WT, noninfected macrophages were arbitrarily set to 1 unit following normalization to ribosomal RNA levels. Statistical analyses performed by unpaired Student's t test. **P<0.01; ***P<0.001.
First-strand synthesis was obtained from 1 μg of total RNA isolated with Trizol reagent (Molecular Research Center Inc.) by the SuperScript system (Invitrogen Corp.), employing random primers.
The subject of test [10] is Staphylococcus aureus. Put plainly: Bactericidal capacity of cultured human monocytic cells against S. aureus. Format: cell-based.
Test [11] deals with HIF-1α-dependant transcription (HRE-luciferase reporter). Put plainly: HRE-luciferase reporter assay in BM-derived macrophages of HRE-luciferase transgenic mice. Format: cell-based, mouse. Particulars: 18 hours; L-Mim 800 μM, desferrioxamine mesylate 150 μM, CoCl2 150 μM.
Experimental: (C) HRE-luciferase BM-derived macrophages were incubated either with GAS or heat-inactivated GAS at an MOI equal to 5-10 under hypoxia (1%) or with the addition of mimosine (800 μM), desferrioxamine mesylate (150 μM), or CoCl2 (150 μM) for 18 hours.
We measured HIF-1α-dependant transcription in macrophages derived from HRE-luciferase transgenic mice, which contain a luciferase reporter gene driven by 6 consecutive specific HRE sequences.
Macrophages were derived from the marrow of femurs and tibiae of transgenic HRE-luciferase mice as described above. The luciferase reporter gene in these mice is driven by 6 specific HRE sequences. Cells were incubated with GAS or heat-inactivated GAS for 18 hours. […] Cells were then washed out with PBS, and luciferase assay was performed by using the Bright-Glo Luciferase Assay kit (Promega Corp.). Luciferase activities were measured using a luminometer.

On to `Cc1ccc(S(=O)(=O)O)cc1.NNC(N)=NO` [AG, 1-amino-2-hydroxyguanidine, p-toluenesulfate], for which, in [1], the “TNF-α protein in conditioned supernatants” value is on record as “reduced amounts”. In test [2] (HIF-1α-null macrophages, presence of iNOS inhibitor), the “bactericidal activity of HIF-1α-null macrophages” value is reported as “did not further suppress”. The “bactericidal activity of WT macrophages” value in [2] (WT macrophages, presence of iNOS inhibitor) is “inhibited”. In addition, the “production of NO in response to GAS” value in test [3] was “significantly inhibited”. Moreover, the “GAS-induced increase of HIF-1α levels” value in [4] is “blocked”.

Regarding `N[C@@H](Cn1ccc(=O)c(O)c1)C(=O)O` [L-Mim, 3-Hydroxy-4-oxo-1(4H)-pyridinealanine], the “intracellular killing of GAS by WT macrophages” value (shortened to “intracellular killing of GAS”) in test [2] is on record as “increased”. Besides, the “bactericidal capacity against vincomycin-resistant Enterococcus species” value in test [5] and in test [6] was “increase” each time. The “bactericidal capacity against Staphylococcus aureus” value in test [7], in test [8] and in test [10] was “increase” in each case. In [9] (HIF-1α-null macrophages infected with GAS), the “increased expression of iNOS mRNA” value is recorded as “very low”. Besides, the “expression of iNOS mRNA” value in [9] is “greatly increased”; in [9] (listed as Mim), “enhances”.

In the case of `Cc1c(O)c(=O)ccn1C` [OH-pyridone, 3-hydroxy-1,2-dimethyl-4(1H)-pyridone], the “intracellular killing of GAS” value in [2] is on record as “increased”.

As for `[Cl][Co][Cl]` [CoCl2, cobalt chloride], the “increase in luciferase reporter activity” value in test [11] is 3 fold. In test [2], the “intracellular killing of GAS” value was “increased”.

With `CC(=O)N(O)CCCCCNC(=O)CCC(=O)N(O)CCCCCNC(=O)CCC(=O)N(O)CCCCCN` [desferrioxamine mesylate], the “increase in luciferase reporter activity” value in test [11] was 3 fold. In [2], the “intracellular killing of GAS” value is on record as “increased”.
